The values that follow are results of earlier work, collected in patent US20110213558A1, “METHOD FOR PREDICTING ACTIVATION ENERGY USING AN ATOMIC FINGERPRINT DESCRIPTOR OR AN ATOMIC DESCRIPTOR” (Bioinformatics & Molecular Design Research Center, priority 2008, published 2011).

SMILES strings stand for the structures. Like-named read-outs stand apart in the source and are kept apart here.

The test system of series [1] is cytochrome P450. The following applies: in vitro.
The test system of series [2] is cytochrome P450. The following applies: in vitro. This is another data set of the same source.

With `COc1ccccc1` [Methoxybenzene], the Experimental metabolic rate in series [1] (atom # 2) is listed as 15-24; in series [1] (atom # 3), 1-3; in series [1] (atom # 4) it was 62-75.
As to `Clc1ccccc1` [Chlorobenzene], the values for the Experimental metabolic rate in series [1] (atom # 2), in series [1] (atom # 3) and in series [1] (atom # 4) were 17-19, 5-9 and 71-79, respectively.
Turning to `CCc1ccccc1` [Ethylbenzene], the Experimental metabolic rate is recorded as 0.2 in series [2] (atom # 1) and 99.8 in series [2] (atom # 2).
With `CCCCCCCC` [Octane], the Experimental metabolic rate in series [2] (atom # 1) is recorded as 2.5; in series [2] (atom # 2) it was 97.5.
Consider `CCCCCC` [Hexane], for which the Experimental metabolic rate is 4.5 in series [2] (atom # 1), 49 in series [2] (atom # 2) and 46.5 in series [2] (atom # 3).
Consider `Cc1ccc(CCl)cc1` [1-chloromethyl-4-methyl-benzene], for which the figures for the Experimental metabolic rate in series [2] (atom # 1) and in series [2] (atom # 2) were 16.0 and 84.0, respectively.
